PMC11374660, “The novel family of Warbicin® compounds inhibits glucose uptake both in yeast and human cells and restrains cancer cell proliferation” (Frontiers in Oncology, 2024)

What was measured:
[1] = system: glucose uptake by tps1Δ yeast cells; assay: Zero-trans uptake of radioactive glucose in tps1Δ yeast cells; type: cell-based, S. cerevisiae; conditions: tps1∆ cells, 2.5 mM glucose; read-out: IC50 values for 2.5 mM glucose uptake in tps1∆ cells
Procedure: (§1) Zero-trans uptake of radioactively labeled [U-^14C]glucose, [U-^14C]fructose or [U-^14C]galactose by S. cerevisiae cells was determined in accordance with previous studies ([45], [75]). Cells were grown on different carbon sources depending on the experiment. For measuring glucose uptake activity in the tps1Δ and tps1Δ hxtΔ strains, cells were grown on YP medium containing 325 mM glycerol (measurement of 10 s). Typically, for compound characterization and kinetic studies in wild type and tps1Δ strains, cells were (pre)grown on Complete Synthetic medium supplemented with 110 mM galactose (measurement of 10 s). In the experiments on the influence of hexokinase activity on the sugar uptake rate, the measurement duration was shortened to 5 s and cells were always grown on YP medium containing 325 mM glycerol and 430 mM ethanol. After harvesting, cells were washed twice with ice-cold 25 mM MES-buffer pH 6, and resuspended in their respective medium without sugar to a final concentration of 45 mg (wet weight)/mL. The amount of added tracer was estimated to give a response close to at least 1000 counts per min in order to adequately counter background noise. Cells were first preincubated for 10 min at 30°C with the compound to acclimate the cells to the temperature and to allow adequate interaction with the compound prior to uptake. Next, hexose sugar was mixed with the cell suspension, which was then incubated at 30°C for 5 or 10 s, depending on the experiment, after which the cells were rapidly filtered over a glass microfiber filter (Whatman GF/C) and washed three times with ice-cold dH2O. The loaded filter was transferred to a scintillation vial containing 3 mL liquid scintillation cocktail (Ultima-Flo M, Perkin Elmer) and counted using the Hidex 300 SL. Three blank measurements per strain were typically included to account for background signal, for which the cells were first quenched before adding the radioactive label.

yeast tps1Δ strain = assay: Growth (rescue) of the yeast tps1Δ strain on galactose with or without glucose; type: cell-based, S. cerevisiae; conditions: 2.5 mM glucose
Procedure: Growth curves were made by measuring OD595 in a 96-well plate using the Multiskan™ FC Microplate Photometer (Thermo Fisher Scientific). Typically, for tps1Δ rescue experiments, cells were (pre)grown in Complete Synthetic medium containing 110 mM galactose. Compounds were always added 10 min prior to glucose addition to ensure maximal interaction between the cells and compounds. Cells originating from the preculture were harvested, washed in medium without sugar, after which they were resuspended to an OD of 0.1 in 200 µL of the appropriate medium. At least three technical replicates were included per condition. OD595 was measured at 30°C every 30 min with a 10-min shaking interval.

[2] = system: A549 lung adenocarcinoma cells; assay: Proliferation of A549 lung adenocarcinoma cells; type: cell-based, human; conditions: for Selected from primary screen for growth inhibition of A549 cells at 50 µM: RPMI 1 mM glucose; for Selected for having an IC50 ratio (10 mM glucose : 1 mM glucose) of A549 growth higher than WBC-A: ratio of IC50 on 10 mM and 1 mM glucose, compared to WBC-A
Procedure: For both adherent A549 and MCF10A H-RAS^V12 cell lines, growth curves were established using the IncuCyte® ZOOM technology. By collecting phase contrast images, the IncuCyte® software provides a calculated confluency percentage from which growth curves can be deducted. The cell number/density was measured by calculating the confluency of phase objects (cells) sticking on the bottom of the well. Cells were seeded at a density of 1000 - 1500 cells/well in a Nunc-Edge™ 96-well plate (Thermo Fisher Scientific) and growth was typically measured over 3 to 5 days. For the measurement of apoptosis induction using the MCF10A H-RAS^V12 cell line, the IncuCyte® Caspase-3/7 green dye was added to the medium in the recommended concentration at the beginning of the growth curve experiment. Apoptosis was detected by taking fluorescent images by excitation at 488 nm followed by IncuCyte® software analysis. Cell growth of the KMS-12-PE multiple myeloma cell line, which grows in suspension, was measured by manual cell counting. Cells were initially seeded at a density of 10^4 cells/well and incubated for 4 days after which the cell number was counted. For all cell lines, the same medium used for pregrowth was also used for the growth curve experiment, albeit with different glucose concentrations depending on the experimental design. With compound administration, the final concentration of DMSO never exceeded 0.1%. Typically, at least four technical repeats were included per condition.

[3] = system: hxk2Δ hxk1Δ GLK1 yeast cells; assay: Sugar uptake in hxk2Δ hxk1Δ GLK1 yeast cells; type: cell-based, S. cerevisiae; conditions: 250 µM CCCP or 50 µM WBC-A 10 min prior; 100 mM maltose with the tracer
Procedure: as §1

[4] = system: glucose uptake by wild type yeast cells; assay: Zero-trans uptake of radioactive glucose in wild type yeast cells; type: cell-based, S. cerevisiae
Procedure: as §1

| SMILES | IC50 [1] [µM] | Rescue of the tps1∆ strain on 2.5 mM glucose at 100 µM (yeast tps1Δ strain) | Minimal rescue concentration for growth of tps1∆ cells on 2.5 mM glucose (yeast tps1Δ strain) [µM] | Selected from primary screen for growth inhibition of A549 cells at 50 µM [2] | fructose uptake at tracer concentration [3] | glucose uptake at tracer concentration [3] | Selected for having an IC50 ratio (10 mM glucose : 1 mM glucose) of A549 growth higher than WBC-A [2] | type of inhibition of glucose uptake (Lineweaver-Burk) [4] | IC50 ([4]; radioactive glucose, 10 s, read-out: IC50 for inhibition of 2.5 mM glucose uptake) [µM] | Ki ([4]; read-out: Ki (Dixon plot) for glucose uptake) [µM] |
| --- | --- | --- | --- | --- | --- | --- | --- | --- | --- | --- |
| Cc1nc(SCC(=O)N(C)CCC#N)c2c(-c3cccs3)csc2n1 [WBC-7B] | 5.41 | Yes | 6.25 | No | – | – | – | – | – | – |
| N#CC(C#N)=NNc1cccc(Cl)c1 [CCCP, reference compound] | – | – | – | – | not that of fructose | lowered the glucose uptake rate | – | – | – | – |
| Cc1nc(Sc2nnc(-c3ccncc3)n2C)c2c(-c3cccs3)csc2n1 [WBC-26A] | 5.35 | Yes | 25 | Yes | – | – | Lower IC50 ratio | – | – | – |
| Cc1nc(SCCN2CCOC2=O)c2c(-c3cccs3)csc2n1 [WBC-26C] | 23.8 | Yes | 25 | No | – | – | – | – | – | – |
| Cc1nc(Sc2nnc(-c3cccnc3)n2C)c2c(-c3cccs3)csc2n1 [WBC-23A] | 8.6 | Yes | 25 | Yes | – | – | Lower IC50 ratio | – | – | – |
| Cc1nc(Sc2nnc3n2CCC(CN=[N+]=[N-])CC3)c2c(-c3cccs3)csc2n1 (stereo not drawn) [WBC-87C] | 11.1 | Yes | 12.5 | Yes | – | – | Lower IC50 ratio | – | – | – |
| Cc1nc(SCCN2CCOCC2)c2c(-c3cccs3)csc2n1 [WBC-44A] | 61.8 | Yes | 50 | Yes | – | – | Lower IC50 ratio | – | – | – |
| CCN(C(=O)CSc1nc(C)nc2scc(-c3cccs3)c12)C1CCS(=O)(=O)C1 (stereo not drawn) [WBC-2C] | 2 | Yes | 1.562 | Yes | – | – | Lower IC50 ratio | mixed type of inhibition | 1.98 | 1.45 |
| COC(=O)CSc1nc(C)nc2scc(-c3cccs3)c12 [WBC-53A] | 26.8 | Yes | 12.5 | No | – | – | – | – | – | – |
| Cc1nc(SCC(=O)NC(N)=O)c2c(-c3cccs3)csc2n1 [WBC-6B] | 10.2 | Yes | 12.5 | Yes | – | – | Lower IC50 ratio | – | – | – |
| CC(=O)NCc1ccc(C(=O)CSc2nc(C)nc3scc(-c4cccs4)c23)o1 [WBC-29B] | 9.23 | Yes | 6.25 | No | – | – | – | – | – | – |
